Reference: US20150173847A1, “IMAGING MARKER AND UTILIZATION THEREOF” (priority 2012, published 2015)
Values joined by “and” are separate entries in the source; they are usually repeats but may differ in a detail not shown here. Identical values can stand only once. Like-named read-outs stand apart in the source and are kept apart here.

Columns and labels:
[1] = Density of the aqueous solutions calculated from the weight of 2 mL in a tube; format: physicochemical
[2] = T1 and T2 relaxivity measurement by spin echo MRI at varying concentrations; format: physicochemical
[3] = at 20 to 25° C., cited from earlier work
[4] = as in the Examples
[5] = aqueous solution that exhibited maximum MRI contrast
[6] = aqueous solution, spin echo, 22° C.

SMILES | Density [1] | density of solution [1] | r1 (T1 relaxivity) [2] | Density [1, 5] | density of solution ([1]; no matter what concentration the solution may have) | r1 (T1 relaxivity) [2, 6] | r1 (T1 relaxivity) ([2]; aqueous solution, spin echo, 22° C., listed as SPT) | maximum density of aqueous solution ([3]; listed as sodium polytungstate (SPT)) | maximum density of aqueous solution [3] | water solubility [4]
O=S(=O)([O-])[O-].[Cu+2] [Cu (CuSO4), Copper sulfate] | 1.0 g/mL | about 1 g/mL | 0.63 and 0.63 mM−1 · sec^−1 | – | – | – | – | – | – | –
CNC[C@H](O)[C@@H](O)[C@H](O)[C@H](O)CO.CNC[C@H](O)[C@@H](O)[C@H](O)[C@H](O)CO.O=C([O-])CN(CCN(CC(=O)[O-])CC(=O)O)CCN(CC(=O)[O-])CC(=O)O.[Gd+3] [Gd (Gd-DTPA), meglumine gadopentetate] | – | – | – | 1.0 g/mL | about 1 g/mL | 4.2 mM⁻¹ s⁻¹ | – | – | – | –
O.[Na+].[Na+].[Na+].[Na+].[Na+].[Na+].[O]=[W](=[O])([O-])[O-].[O]=[W](=[O])([O-])[O-].[O]=[W](=[O])([O-])[O-].[O]=[W](=[O])=[O].[O]=[W](=[O])=[O].[O]=[W](=[O])=[O].[O]=[W](=[O])=[O].[O]=[W](=[O])=[O].[O]=[W](=[O])=[O].[O]=[W](=[O])=[O].[O]=[W](=[O])=[O].[O]=[W](=[O])=[O] [W (SPT), Sodium polytungstate] | – | – | – | 3.0 g/mL | – | 0.00036 mM⁻¹ s⁻¹ | 0.00036 mM⁻¹ s⁻¹ | at most 3.08 g/mL | 3.08 g/mL | > 1000 mg/mL
